# From patent publication US6964856B2, “Animal models and methods for sepsis” (priority 1999, dated 2005)
# System: luminescent Pseudomonas aeruginosa
# Assay: LD50 of luminescent Pseudomonas aeruginosa in mice, effect of anesthesia or adjuvant on virulence
# Format: in vivo
# Details: Ketamine-sedated mice; non-anesthetized mice: approximately 2.5×10^6 CFU
# From the text: One of the factors typically determined in the calibration process is a suitable dose of pathogen for the selected model system of sepsis. This dose is preferably based on the LD50 of the pathogen in the particular animal model of sepsis being used. The LD50, or “Lethal Dose 50”, is a measure for quantifying the effects of a perturbation (e.g., a test compound, procedure, or bacterial infection) on a biological system. It represents the 50% mortality point—that is, the concentration or level of a particular perturbation at which half of the animals die by the end of the experiment.
# The LD50 may change depending on the experimental parameters. The measure is therefore expressed as an LD50 for a given experimental system. By way of example, it was discovered in the course of experiments performed in support of the present invention that the type of anesthesia used to prepare the animals for imaging can have a significant effect on the LD50. Specifically, it was discovered that anesthesia induced by injectable Ketamine may potentiate the virulence of some pathogens.
# For example, it was found during experiments performed in support of the present invention that pathogen virulence is boosted by administration of 5% (by volume) hog gastric mucin to the host. […]
smiles,measurement,value
CNC1(c2ccccc2Cl)CCCCC1=O (stereo not shown) [Ketamine],LD50 of luminescent Pseudomonas aeruginosa,~4.6×10^5 CFU
